According to article PMC9610975, “Microemulsions Enhance the In Vitro Antioxidant Activity of Oleanolic Acid in RAW 264.7 Cells” (Pharmaceutics, 2022):
Values after ≈ are worked out from the molar mass of the structure shown.

Columns and labels:
[1] = Saturation solubility of OA in different oils and surfactants; type: physicochemical; conditions: thermodynamic from solid
Procedure: The solubility of OA in different vehicles was defined by adding an excess of OA to 2 mL of each of the tested solvents/tensides: Water, Capmul PG-8/NF, Capmul PG-12/NF, Capryol 90, Captex 300, Captex 355, Cremophor EL, Etyl Oleate, Isoprpyl myristate, Labrafac lipophile, Labrafilm 1944, Labrafilm 2125, Labrasol, Labrasol ALF, Lauroglycol 90, Nigella Oil, PEG400, Soybean Oil, Sunflower Oil, Transcutol, Triacetine, Tween 20 and Tween 80. Each mixture of solvent and OA was stirred for 24 h at 25 °C, then it was centrifuged at 14,000× g for 10 min. After removing the precipitate, the supernatant was diluted with MeOH and analyzed by HPLC-DAD to determine the concentration of the OA. The analyses were performed in triplicate.

[2] = In vitro release, dialysis bag method, EtOH:PBS (30:70); type: physicochemical; conditions: 6 h, 37 °C
Procedure: The release studies of OA from MEs in comparison to OA solution (SDS 0.5% p/V in H2O) were carried out with the dialysis bag method (regenerated cellulose dialysis membranes, Spectrum Laboratories, Inc., Breda, The Netherlands, MWCO 12–14 kD). Two mL of the OA-MEs or the solution were placed into a 12–14 kDa dialysis membrane and immersed into 200 mL of the release medium at 37 °C under magnetic stirring, using EtOH:PBS (30:70) as the release medium. In vitro release study was also carried out in the simulated gastric fluid (SGF) medium at pH 1.2 for 2 h followed by simulated intestinal fluid (SIF) at pH 6.8 for 6 h. The composition of the gastric fluid was 2 g of NaCl and 7 mL of HCl per liter of deionized water. The intestinal fluid was composed of 6.805 g of KH2PO4 and 0.896 g of NaOH per liter of deionized water. At predetermined time intervals, 1 mL of each release medium was withdrawn and replaced with an equal volume of fresh solution. The OA concentration in samples was finally determined by HPLC-DAD. All studies were performed in triplicate.
To evaluate the kinetics and mechanism of drug release from the microemulsions, the Korsmeyer–Peppas model, Hixson–Crowell model and Higuchi model, and the first order and zero order mathematical models, were used, and the best-fitted model was selected based on high regression coefficient (R^2) value for the release data.

[3] = Parallel artificial membrane permeability assay (PAMPA); type: in vitro ADME; conditions: room temperature, read-out: permeability coefficient (Pe)
Procedure: The test was carried out in a 96-well, MultiScreen-IP PAMPA (Millipore corporation) filter plate in order to evaluate the ability of compounds to diffuse from a donor compartment into an acceptor compartment. EtOH:PBS (30:70) mixture was selected as the acceptor medium for ME-1-OA and EtOH:PBS (5:95) for ME-2-OA. Each membrane was activated with a combination of lecithin and cholesterol, 10 g/L and 8 g/L, respectively, in 1,7-octadiene. Immediately after the deposition of the solution (5 µL), 250 µL of OA solution and appropriately diluted MEs-OA were added to each well of the donor plate. Each receptor plate was filled with 250 µL of acceptor medium. The plate was incubated at room temperature for 1 h. Then, the samples were withdrawn, properly diluted with methanol, centrifuged for 10 min at 14,000× g, and the OA concentration determined by HPLC-DAD. The permeability coefficient Pe (cm/s) was calculated according to the following equation: Pe=−ln 1−CAt/Ceq/A 1/VD+1/VAt where A is the active surface area (0.3 cm^2 × apparent porosity of the filter), VD and VA the well volume of the donor and acceptor plate (mL), respectively, t the incubation time (s), and CAt and CDt the concentration of OA in the acceptor and donor plate at time t, respectively. Ceq was calculated according to: Ceq=CDt × VD+CAt × VA/VA+VD

RAW 264.7 cells [4] = assay: MTT assay, cell viability without LPS; type: cell-based, murine; conditions: 18 h, compared to untreated control cells
Procedure: The murine macrophages RAW 264.7 cell line (ATCC TIB-71™) was used in this study. Cells were grown in DMEM culture medium supplemented with L-glutamine (2 mM), streptomycin (100 µg/mL) and penicillin (100 U/mL), and 10% Heat-Inactivated Fetal Bovine Serum (HI-FBS), at 37 °C in 5% CO2 atmosphere. HI-FBS was obtained by incubating FBS at 55 °C for 30 min. Upon reaching 90% confluence, macrophage subcultures were prepared by scraping cells and adding appropriate dilutions of the cell suspension to a new plate. The culture medium was replaced every 3 days. The Methyl Thiazolyl Tetrazolium (MTT) assay was used to assess the viability of RAW 264.7 cells under various experimental conditions. Cells were seeded in a 96-well plate (15 × 10^3 cells/well) in complete medium and incubated overnight. Next, cells were starved for 6 h, and then treated for an additional 18 h with OA and OA loaded in the two different formulations (ME-1-OA and ME-2-OA) at various concentrations, in the absence or presence of LPS (1 μg/mL). […] Subsequently, cells were incubated with a 0.5 mg/mL solution of MTT (100 μL/well) for 1 h in the dark at 37 °C. After a wash in PBS, the insoluble formazan crystals were dissolved by adding 100 μL/well of dimethyl sulfoxide (DMSO). The iMARK microplate reader (Bio-Rad, Hercules, CA, USA) was used to measure absorbance values at a wavelength of 595 nm. […]

RAW 264.7 cells [5] = assay: MTT assay, LPS-induced reduction of cell viability; type: cell-based, murine; conditions: 18 h
Procedure: In in vitro cell-based experiments, cells were incubated in serum-free DMEM medium (starvation medium) for 6 h and then incubated for an additional 18 h in the presence of LPS (1 μg/mL). LPS was used as a pro-inflammatory and pro-oxidant stimulus. Cells untreated and not exposed to LPS stimulus were used as controls. The Methyl Thiazolyl Tetrazolium (MTT) assay was used to assess the viability of RAW 264.7 cells under various experimental conditions. Cells were seeded in a 96-well plate (15 × 10^3 cells/well) in complete medium and incubated overnight. Next, cells were starved for 6 h, and then treated for an additional 18 h with OA and OA loaded in the two different formulations (ME-1-OA and ME-2-OA) at various concentrations, in the absence or presence of LPS (1 μg/mL). […] Subsequently, cells were incubated with a 0.5 mg/mL solution of MTT (100 μL/well) for 1 h in the dark at 37 °C. After a wash in PBS, the insoluble formazan crystals were dissolved by adding 100 μL/well of dimethyl sulfoxide (DMSO). The iMARK microplate reader (Bio-Rad, Hercules, CA, USA) was used to measure absorbance values at a wavelength of 595 nm. Data were reported in percentage terms compared with untreated control cells not exposed to LPS. The experiment was repeated in triplicate.

RAW 264.7 cells [6] = assay: Intracellular ROS production (DCFDA probe) under LPS; type: cell-based, murine; conditions: 18 h
Procedure: In in vitro cell-based experiments, cells were incubated in serum-free DMEM medium (starvation medium) for 6 h and then incubated for an additional 18 h in the presence of LPS (1 μg/mL). LPS was used as a pro-inflammatory and pro-oxidant stimulus. Cells untreated and not exposed to LPS stimulus were used as controls. DCFDA fluorescent probe was used for sensitive and rapid quantification of intracellular ROS in response to LPS stimulus. Cells were seeded in a 96-well plate (20 × 10^3 cells/well) in complete medium and incubated overnight. After 6 h starvation, cells were treated for an additional 18 h with OA and OA loaded in the two different formulations (ME-1-OA and ME-2-OA) at various concentrations, in the absence or presence of LPS (1 μg/mL). […] Next, DCFDA probe (10 μM in PBS) was added to each well and incubated in the dark for 1.5 h at 37 °C. Fluorescence values were measured at excitation and emission wavelengths of 485 and 538 nm, respectively, using a fluorescence microplate reader (Fluoroskan Ascent^TM FL Microplate Fluorometer, Thermo Fisher Scientific, (Waltham, MA, USA). The level of intracellular ROS was normalized to cell viability. Data were reported in percentage terms compared with untreated control cells not exposed to LPS. The experiment was repeated in triplicate.

[7] = design: method as in PMID 17163409; conditions: water; cited from earlier work
[8] = design: method as in PMID 17163409; conditions: rats, oral doses of 25 and 50 mg/kg; cited from earlier work
[9] = LPS 1 μg/mL, compared with unstimulated control cells

CC1(C)CC[C@]2(C(=O)O)CC[C@]3(C)C(=CC[C@@H]4[C@@]5(C)CC[C@H](O)C(C)(C)[C@@H]5CC[C@]43C)[C@@H]2C1 [OA, Oleanolic acid]
solubility at 24 h ([1]; oil or lipid, in Capmul PG-8/NF, 24 h at 25 °C): 19.72 ± 0.13 mg/mL (≈ 43.2 mM)
solubility at 24 h ([1]; oil or lipid, in Capmul PG-12/NF, 24 h at 25 °C): 16.4 ± 1.04 mg/mL (≈ 36 mM)
solubility at 24 h ([1]; oil or lipid, in Capryol 90, 24 h at 25 °C): 24.9 ± 0.9 mg/mL (≈ 54.6 mM)
solubility at 24 h ([1]; oil or lipid, in Captex 300, 24 h at 25 °C): 3.74 ± 0.1 mg/mL (≈ 8.19 mM)
solubility at 24 h ([1]; oil or lipid, in Captex 355, 24 h at 25 °C): 3.19 ± 0.24 mg/mL (≈ 6.98 mM)
solubility at 24 h ([1]; oil or lipid, in Etyloleate, 24 h at 25 °C): 2.13 ± 0.21 mg/mL (≈ 4.66 mM)
solubility at 24 h ([1]; oil or lipid, in Isopropil myristate, 24 h at 25 °C): 9.44 ± 1.05 mg/mL (≈ 20.7 mM)
solubility at 24 h ([1]; oil or lipid, in Labrafac Lipophile, 24 h at 25 °C): 13.3 ± 0.87 mg/mL (≈ 29.1 mM)
solubility at 24 h ([1]; oil or lipid, in Labrasol ALF, 24 h at 25 °C): 12 ± 0.84 mg/mL (≈ 26.2 mM)
solubility at 24 h ([1]; oil or lipid, in Labrasol, 24 h at 25 °C): 13.3 ± 0.21 mg/mL (≈ 29.1 mM)
solubility at 24 h ([1]; oil or lipid, in Lauroglycole 90, 24 h at 25 °C): 10.8 ± 0.56 mg/mL (≈ 23.5 mM)
solubility at 24 h ([1]; oil or lipid, in Nigella oil, 24 h at 25 °C): 35.4 ± 1.41 mg/mL (≈ 77.5 mM)
solubility at 24 h ([1]; oil or lipid, in Soybean oil, 24 h at 25 °C): 1.06 ± 0.17 mg/mL (≈ 2.32 mM)
solubility at 24 h ([1]; oil or lipid, in Sunflower oil, 24 h at 25 °C): 11.8 ± 0.46 mg/mL (≈ 25.7 mM)
solubility at 24 h ([1]; oil or lipid, in Triacetine, 24 h at 25 °C): 3.09 ± 0.17 mg/mL (≈ 6.77 mM)
solubility at 24 h ([1]; organic solvent or mixture, in PEG 400, 24 h at 25 °C): 8.49 ± 0.58 mg/mL (≈ 18.6 mM)
solubility at 24 h ([1]; organic solvent or mixture, in Transcutol HP, 24 h at 25 °C): 41 ± 2.41 mg/mL (≈ 89.8 mM)
solubility at 24 h ([1]; in Cremophor EL, 24 h at 25 °C): 28.3 ± 0.93 mg/mL (≈ 62 mM)
solubility at 24 h ([1]; in Tween 20, 24 h at 25 °C): 6.19 ± 0.58 mg/mL (≈ 13.6 mM)
solubility at 24 h ([1]; in Tween 80, 24 h at 25 °C): 4.56 ± 0.36 mg/mL (≈ 9.98 mM)
OA released [2]: 23.6 ± 1.25%
Papp at 1 h [3]: 0.369 ×10⁻⁶ cm/s
change in cell viability (RAW 264.7 cells [4]; 0.05–1 μg/mL): No significant change in cell viability
reduction in cell viability (RAW 264.7 cells [4]; 2.5–10 μg/mL): 25–30%
protective effect against LPS-induced reduction of cell viability (RAW 264.7 cells [5]; free OA 0.05–1 μg/mL with LPS 1 μg/mL): no significant protective effect
effect against LPS-induced intracellular ROS production (RAW 264.7 cells [6]; free OA 0.25–1 μg/mL with LPS 1 μg/mL): mild but significant
aqueous solubility [7]: 1.75 ng/mL (≈ 3.83e-06 mM)
oral bioavailability [8]: 0.7%

lipopolysaccharide [LPS, reference compound]
cell viability (RAW 264.7 cells [5]; [9]): 70 ± 7%
intracellular ROS levels (RAW 264.7 cells [6]; [9]): 165 ± 7%
